Data: paper PMC4381587, “A novel PI3K inhibitor PIK-C98 displays potent preclinical activity against multiple myeloma” (Oncotarget, 2014)

Assays:
[1] = Body weight and hematology analysis in xenograft mice; assay type: in vivo
Protocol: Totally 50 female […] mice from Shanghai Slac Laboratory Animal Co. Ltd were used for the xenograft models with human MM cell lines OPM2 and JJN3, respectively. When tumors were palpable, the OPM2-xenograft mice were randomly divided into two groups. One group as a control was received the vehicle, and another group was orally administrated C98 (80 mg/kg) once a day for continuous 16 days. The JJN3 xenografted mice were randomly divided into three groups which were orally administrated vehicle or C98 (40 or 80 mg/kg), respectively. Body weight and tumor volumes were measured every other day as described previously. At the end of this experiment, tumors were collected for further studies. The concentrations of C98 in tumor tissues were also determined by LC-MS/MS as described above. All experiments involved in mice were reviewed and approved by the Review Board of Animal Care and Use of Soochow University.
At the end of the experiment of the in vivo studies, whole blood samples were collected from the eyes and were immediately subject to complete blood analysis as described previously. […]
www.impactjournals.com/oncotarget/ Oncotarget, Supplementary Materials 2014 […]
OPM2 (A) and JJN3 (B) were injected (s.c.) […]
into nude mice. When tumors were palpable, mice were orally administrated C98 at dosage as indicated for continued 16 days. Mice bodyweight was monitored every other day. […]

[2] = test system: PI3K/AKT/mTOR pathway in OPM2 and JJN3 cells; assay: Immunoblotting of PI3K/AKT/mTOR pathway in OPM2 and JJN3 cells; assay type: cell-based, human; settings: OPM2 and JJN3, increasing concentration, 24 hr
Protocol: Subsequently, the inhibition of C98 on the PI3K signaling pathway was evaluated in MM cell lines OPM2 and JJN3. […] Because all these kinases are downstream signaling proteins in the PI3K pathway while C98 had no effects on AKT and mTOR in the cell free assay, the inhibition of C98 on these kinases was probably due to its suppression on PI3K.
(§1) (B) LP1 and JJN3 cells were starved overnight, then treated with C98 or S14161 for 2 hr, followed by IGF-1 (100 ng/mL) for 15 min. Cells were then prepared for the analysis of the expression of p-AKT, t-AKT, p-IGF-1R, and IGF-1R by immunoblotting. (C) OPM2 and JJN3 cells were treated with increasing concentrations of C98 for 24 hr before being applied to immunoblotting against p-ERK, t-ERK, p-P38, t-P38, p-Src, t-Src, p-STAT3, or t-STAT3. GAPDH and β-actin were used as loading controls.
(§2) The immunoblotting assays were performed as described previously. IRDye 680 goat anti-mouse and IRDye 800CW goat anti-rabbit antibodies were from Odyssey (San Ramon, CA, USA).

[3] = biological target: recombinant human PI3K isoform γ (Homo sapiens, UniProt P48736); assay: Kinase activity in cell-free assay (HotSpot), PI3Kγ; assay type: biochemical; settings: read-out: IC50 against PI3K γ isoform
Sequence of recombinant human PI3K isoform γ (P48736 whole entry, canonical isoform): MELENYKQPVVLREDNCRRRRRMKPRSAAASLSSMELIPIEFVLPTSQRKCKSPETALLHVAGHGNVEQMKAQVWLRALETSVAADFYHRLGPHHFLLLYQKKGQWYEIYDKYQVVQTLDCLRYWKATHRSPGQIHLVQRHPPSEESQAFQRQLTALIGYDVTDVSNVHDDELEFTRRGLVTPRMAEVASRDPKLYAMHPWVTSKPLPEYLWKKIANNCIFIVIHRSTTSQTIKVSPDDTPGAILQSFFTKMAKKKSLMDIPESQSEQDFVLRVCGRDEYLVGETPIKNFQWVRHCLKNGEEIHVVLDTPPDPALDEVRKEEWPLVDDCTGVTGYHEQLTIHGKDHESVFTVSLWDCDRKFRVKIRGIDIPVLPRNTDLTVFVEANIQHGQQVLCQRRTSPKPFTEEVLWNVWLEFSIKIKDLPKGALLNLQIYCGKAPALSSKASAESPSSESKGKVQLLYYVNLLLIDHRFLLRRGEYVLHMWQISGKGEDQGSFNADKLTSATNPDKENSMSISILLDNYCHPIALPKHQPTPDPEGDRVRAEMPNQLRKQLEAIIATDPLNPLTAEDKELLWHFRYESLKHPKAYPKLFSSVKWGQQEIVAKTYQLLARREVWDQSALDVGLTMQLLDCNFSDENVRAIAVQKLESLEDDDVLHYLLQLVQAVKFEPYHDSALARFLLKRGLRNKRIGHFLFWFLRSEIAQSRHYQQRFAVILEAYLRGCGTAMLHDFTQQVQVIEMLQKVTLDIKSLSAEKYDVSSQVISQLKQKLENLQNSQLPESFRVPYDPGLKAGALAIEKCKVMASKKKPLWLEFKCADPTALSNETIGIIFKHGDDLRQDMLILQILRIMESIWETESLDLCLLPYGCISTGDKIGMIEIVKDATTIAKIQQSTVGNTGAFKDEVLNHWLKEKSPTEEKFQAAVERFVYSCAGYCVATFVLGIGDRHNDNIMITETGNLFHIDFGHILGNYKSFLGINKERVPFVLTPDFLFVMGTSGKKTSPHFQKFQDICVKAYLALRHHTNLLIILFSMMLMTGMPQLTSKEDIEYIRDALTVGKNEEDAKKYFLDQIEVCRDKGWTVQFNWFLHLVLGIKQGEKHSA
Protocol: To confirm this hypothesis, the inhibitory potency of C98 on PI3K enzymes was measured in a cell-free system with individual recombinant human PI3K isoforms. […] To further evaluate its specificity on PI3K, the effects of C98 on other associated kinases AKT, PDK1, and mTOR were also measured in the enzymatic systems. […] Therefore, C98 preferred to inhibit PI3K activity.
Figure 1 C98 inhibits PI3K activity (A) Chemical structure of C98. (B) OPM2 cells were starved overnight and then treated with six compounds identified from the virtual screening for 2 hr, followed by IGF-1 stimulation for 15 min. Cell lysates were prepared for AKT expression and phosphorylation analyses. The known PI3K inhibitor S14161 was used as a positive control. (C) OPM2 cells were starved overnight, then treated with C98 at indicated concentration (25, 50 and 100 μM) or S14161 (100 μM) for 2 hr, followed by IGF-1 (100 ng/mL) stimulation for 15 min Cell lysates were prepared for AKT expression and phosphorylation analyses. […] Activity of each kinase was determined with HotSpot technology as described in the Methods section “Kinase activity in cell-free assay”. […]

c-Src = assay: Immunoblotting of c-Src phosphorylation in OPM2 and JJN3 cells; assay type: cell-based, human; settings: OPM2 and JJN3, 24 hr
Protocol: as §1
(§3) To further clarify the effects of C98 on other signaling pathways associated with PI3K signaling, we evaluated ERK and p38, both of which mediate extracellular signaling similar to PI3K. […] We also checked the phosphorylation status of STAT3, a signal transducer and activator of transcription. […] Therefore, C98 had no effects on these kinases/proteins associated with PI3K signaling.
as §2

OPM2 and RPMI-8226 cells = assay: MTT assay with IGF-1 rescue; assay type: cell-based; settings: OPM2 and RPMI-8226, IGF-1 alone or together with C98, 48 hr
Protocol: To answer whether C98 could induce apoptosis in other MM cells, 5 more MM cells were subject to the study. […] Cell apoptosis induced by C98 was further confirmed by the increased fraction of positive cells stained with Annexin V (Figure 5). To show whether activated PI3K signals can rescue C98 effects on MM cells, both OPM2 and RPMI-8226 cells were treated with IGF-1 alone or together with C98 for 48 hr followed by MTT assay.
Cell viability was assessed with the MTT assay as reported previously. To show apoptosis, MM cells were incubated for 24 hr with increasing concentrations of C98 before being stained with Annexin V-FITC and propidium iodide (BioVision Milpitas, CA). Apoptotic cells were measured on a flow cytometer (FACSCalibur®, Becton Dickinson) as reported as previously. […]
www.impactjournals.com/oncotarget/ Oncotarget, Supplementary Materials 2014
Supplementary Figure S3: IGF-1 rescues C98-decreased MM cell proliferation. OPM2 and RPMI-8226 cells were treated with IGF-1 alone or increased C98 for 48 hr, followed by MTT assay. […]

STAT3 = assay: Immunoblotting of STAT3 phosphorylation in OPM2 and JJN3 cells; assay type: cell-based, human; settings: OPM2 and JJN3, 24 hr
Protocol: as §1, §3, §2

Structure (SMILES): N#C/C(=C\C=C\c1ccc(-c2cc(Cl)ccc2Cl)o1)C(N)=S [C98]
- body weight of mice ([1]; OPM2 and JJN3 xenograft models, oral 40 or 80 mg/kg, 16 days): had no effects on body weight
- blood cell count, platelet count, hemoglobin measurement ([1]; mice treated with C98, end of the in vivo studies (data not shown)): no significant changes
- phosphorylation levels of AKT, mTOR, p70S6K, and 4E-BP1 [2]: downregulated
- IC50 [3]: 0.74 µM
- phosphorylation of c-Src (c-Src): failed to inhibit
- MM cell proliferation (MTT), rescue by IGF-1 (OPM2 and RPMI-8226 cells): IGF-1 could partly abolish C98-decreased MM cell proliferation
- phosphorylated STAT3 (STAT3): did not decrease
